Source: patent US11679106B2, “Bromodomain inhibitor” (CELGENE QUANTICEL RESEARCH, INC., priority 2015, dated 2023)
Converted amounts (≈) assume the structure as drawn.

Legend:
BRD4(BD1) = molecular target: T1, BRD4(BD1) (Homo sapiens, UniProt O60885); test: In vitro enzyme inhibition assay (AlphaScreen, BRD4 / H4-tetraacetyl peptide); assay type: binding; conditions: BRD4(BD1) 2 nM, peptide 15 nM
T1 construct: In a 384-well ProxiPlate BRD4(BD1) (2 nM final) was combined with peptide; made in house
Method: His-tagged BRD4 was cloned, expressed, and purified to homogeneity. […] BRD4 binding and inhibition was assessed by monitoring the interaction of biotinylated H4-tetraacetyl peptide (AnaSpec, H4K5/8/12/16(Ac), biotin-labeled) with the target using the AlphaScreen technology ([…]). […] After 20 min incubation at RT, Alpha streptavidin donor beads and Nickel Chelate acceptor beads were added to a final concentration of 5 μg/mL.

[1] = test system: Raji, human Burkitts lymphoma cells; test: Cell-MTS cellular proliferation assay, Raji; assay type: cell-based; conditions: 168 hr incubation
Method: (§1) A colorimetric cellular proliferation assay (Cell-MTS assay) was performed to assess the ability of the heterocyclic derivative BRD4 inhibitors disclosed herein to effect the proliferation of established cancer cell lines.
(§2) Assay Principle: The Cell-MTS assay is a 7-day plate-based colorimetric assay that quantifies the amount of newly generated NADH in the presence or absence of test compound. The NADH level is used for the quantification of cancer cell proliferation.
(§3) Assay Method: Established cancer cell lines with a variety of driving mutations were obtained from American Type Culture Collection (ATCC) and routinely passaged according to ATCC protocols. For routine assay, these cells were seeded at densities that enabled ˜90% confluence after 7 days of culture. Raji, human Burkitts lymphoma cells, (cMYC) were seeded at 15,000 cells per 96-well. HL-60, human proleukemia cells, (NRAS, p16, p53, c-Myc amplified) were seeded at 5,000 cells per 96-well. NCI-H460, human non-small cell lung cancer cells, (KRAS, PIK3CA, STLK11, p16) were seeded at 3,000 cells per 96-well. Plated cells were incubated for 24 hr, and thereafter cells received an 11-point dilution of Compound 1 with final concentration ranges from 100 μM to 2.0 nM. […] IC50 values were calculated using the IDBS XLfit software package and include background subtracted OD490 values and normalization to DMSO controls. […]

[2] = test system: HL-60, human proleukemia cells; test: Cell-MTS cellular proliferation assay, HL-60; assay type: cell-based; conditions: 168 hr incubation
Method: as §1, §2, §3

[3] = test system: NCI-H460, human non-small cell lung cancer cells; test: Cell-MTS cellular proliferation assay, NCI-H460; assay type: cell-based; conditions: 168 hr incubation
Method: as §1, §2, §3

[4] = PK study of plasma exposure in mouse 6 hours after oral SDD preparations; assay type: in vivo, female CD-1 mice; conditions: female, CD-1, mouse
Method: Spray-dried dispersions (SDD) were prepared by mixing a solution of Compound 1 in dichloromethane with either polyvinylpyrrolidone (PVP K12 PF) or hydroxypropyl methylcellulose (Methocel E5 LV) in ratios of Compound 1:polymer of either 1:1 or 1:3, resulting in four unique combinations, followed by spray-drying each preparation using a lab scale Buchi spray dryer (Buchi B290 parameters: inlet T° 80° C.; outlet T° 57° C.; aspirator 100%; nozzle air 30 mm; pump speed 25%; setup: open loop).
In order to determine the plasma exposure levels of the four SDDs prepared as described above, each of preparation was administered orally to female CD-1 mice as a suspension in 0.5% MC. FIG. 6 illustrates the results of this experiment.

[5] = PK study of dose proportionality in rat after oral SDD; assay type: in vivo, female Sprague Dawley rats; conditions: 25% Compound 1:HPMC SDD, oral 0.5% MC suspension, 10 mg/kg to 300 mg/kg
Method: (§4) The spray-dried dispersion was prepared by mixing a solution of Compound 1 in dichloromethane with hydroxypropyl methylcellulose (Methocel E5 LV) (HPMC) in a 1:3 Compound 1:polymer ratio, stirring the mixture overnight, and then spray-drying using a lab scale Buchi spray dryer.

[6] = PK study of dose proportionality in dog after oral SDD; assay type: in vivo, male beagle dogs; conditions: 25% Compound 1:HPMC SDD, oral 0.5% MC suspension, 1 mg/kg-10 mg/kg
Method: as §4

[7] = PK study of plasma exposure in rat after oral HPMCAS SDD preparations; assay type: in vivo, female Sprague Dawley rats; conditions: female, Sprague Dawley, 10 mg/kg
Method: Spray-dried dispersions (SDD) were prepared by mixing a solution of Compound 1 in (90:10) acetone:water with hydroxypropylmethylcellulose acetate succinate M or H (HPMCAS-M or HPMCAS-H) in ratios of Compound 1:polymer of either 1:9 or 1:3, followed by spray-drying each preparation using a custom bench scale Lab Spray Dryer (BLD-35; process parameters: inlet T° 93-109° C.; outlet T° 42-43° C.; atomizing pressure 110 psi; feed rate 29 g/min; […] 450 g/min).
In order to determine the plasma exposure levels of the three SDDs prepared as described above, each of them was administered orally at 10 mg/kg (based on Compound 1) to female Sprague Dawley rats as a suspension in 0.5% MC for the 10% HPMCAS-M SDD or as a suspension in 0.5% Methocel A4M/0.5% HPMCAS-HF/20 mM Tris, pH 7.4 for the 25% HPMCAS-M and the 25% HPMCAS-H SDDs. FIG. 9 illustrates the results of this experiment.

[8] = Aqueous solubility, kinetic shake flask method; assay type: physicochemical; conditions: aqueous buffer, kinetic from dmso stock, pH=7.4 in 50 mM phosphate buffer
[9] = PK study of dose proportionality in rat after oral crystalline Form A; assay type: in vivo, female Sprague Dawley rats; conditions: oral 10, 30, 100 or 300 mg/kg, suspension in 1% Tween, 40% PEG400, 59% of 0.5% HPMC
Excerpt: A summary of this study is illustrated in FIG. 5.

IC50 (BRD4(BD1)) [nM] | IC50 [1] [nM] | IC50 [2] [nM] | IC50 [3] [nM] | AUC(0-t) ([4]; SDD with HPMC polymer, Compound 1:polymer 1:1, suspension in 0.5% MC) [ng·h/mL] | AUC(0-t) ([4]; SDD with HPMC polymer, Compound 1:polymer 1:3, suspension in 0.5% MC) [ng·h/mL] | AUC(0-t) ([4]; SDD with PVP polymer, Compound 1:polymer 1:1, suspension in 0.5% MC) [ng·h/mL] | AUC(0-t) ([4]; SDD with PVP polymer, Compound 1:polymer 1:3, suspension in 0.5% MC) [ng·h/mL] | dose proportionality (AUC 0-24 hr) [5] | dose proportionality (AUC 0-24 hr) [6] | AUC(0-t) ([7]; SDD with HPMCAS-M polymer, Compound 1:polymer 1:9, suspension in 0.5% MC, read-out: mean AUC 0-24 hr) [ng·h/mL] | AUC(0-t) ([7]; pH 7.4, SDD with HPMCAS-H polymer, Compound 1:polymer 1:3, suspension in 0.5% Methocel A4M/0.5% HPMCAS-HF/20 mM Tris, pH 7.4, read-out: mean AUC 0-24 hr) [ng·h/mL] | AUC(0-t) ([7]; pH 7.4, SDD with HPMCAS-M polymer, Compound 1:polymer 1:3, suspension in 0.5% Methocel A4M/0.5% HPMCAS-HF/20 mM Tris, pH 7.4, read-out: mean AUC 0-24 hr) [ng·h/mL] | solubility [8] [µg/mL] | exposure levels (AUC 0-24 hr) versus dose [9] | Structure (SMILES)
< 500 | ≤ 500 | ≤ 500 | > 5000 | 10500 | 24400 | 7190 | 8870 | approximate dose proportionality | Approximate dose proportionality | 28100 | 27500 | 24600 |  |  | Cn1cc(-c2cc(S(C)(=O)=O)ccc2OCC2CC2)c2ccccc2c1=O [Compound 1, 4-[2-(cyclopropylmethoxy)-5-methylsulfonylphenyl]-2-methylisoquinolin-1-one]
 |  |  |  |  |  |  |  |  |  |  |  |  | 2.6 to 3.7 (≈ 6.78 to 9.65 µM) | non-linear exposure levels | Cn1cc(-c2cc(S(C)(=O)=O)ccc2OCC2CC2)c2ccccc2c1=O [Compound 1 Form A, 4-[2-(cyclopropylmethoxy)-5-methylsulfonylphenyl]-2-methylisoquinolin-1-one]
